Laboratory results reported in ChEMBL document CHEMBL3132795, “Synthesis, functional and binding profile of (R)-apomorphine based homobivalent ligands targeting the dopamine D2 receptor” (Medchemcomm, 2013).

Key:
D(2) dopamine receptor [1] = target: T1, D(2) dopamine receptor (Homo sapiens, UniProt P14416); test: Displacement of [3H]spiperone from human recombinant dopamine D2L receptor expressed in CHOFlpIn cells after 3 hrs by liquid scintillation counting; type: cell-based
D(2) dopamine receptor [2] = target: T1, D(2) dopamine receptor; test: Agonist activity at human recombinant dopamine D2L receptor expressed in CHOFlpIn cells assessed as ERK1/2 phosphorylation by alphascreen assay; type: cell-based

T1 sequence (P14416 whole entry): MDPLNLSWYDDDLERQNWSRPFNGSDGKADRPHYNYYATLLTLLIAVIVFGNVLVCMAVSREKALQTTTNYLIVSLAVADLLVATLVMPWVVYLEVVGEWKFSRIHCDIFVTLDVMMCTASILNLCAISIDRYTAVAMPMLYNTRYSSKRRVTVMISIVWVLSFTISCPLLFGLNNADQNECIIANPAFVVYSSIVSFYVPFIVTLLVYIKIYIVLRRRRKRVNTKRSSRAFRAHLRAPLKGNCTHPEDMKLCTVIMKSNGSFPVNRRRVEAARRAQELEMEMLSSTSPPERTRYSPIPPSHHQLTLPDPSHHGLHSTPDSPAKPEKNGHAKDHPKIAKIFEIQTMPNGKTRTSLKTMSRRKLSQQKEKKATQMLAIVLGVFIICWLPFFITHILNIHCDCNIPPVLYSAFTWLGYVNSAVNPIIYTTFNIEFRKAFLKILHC

IC50 (D(2) dopamine receptor [1]) | EC50 (D(2) dopamine receptor [2]) | SMILES
– | 10 nM | CN1CCc2cccc3c2[C@H]1Cc1ccc(OCCCN)c(O)c1-3
– | 132 nM | CC(=O)NCCCOc1ccc2c(c1O)-c1cccc3c1[C@@H](C2)N(C)CC3
– | 224 nM | CN1CCc2cccc3c2[C@H]1Cc1ccc(OCCCNC(=O)CCCCCCCCCCCCC(=O)NCCCOc2ccc4c(c2O)-c2cccc5c2[C@@H](C4)N(C)CC5)c(O)c1-3
3.6 µM | 419 nM | CN1CCc2cccc3c2[C@H]1Cc1ccc(OCCCNC(=O)CCCCCCC(=O)NCCCOc2ccc4c(c2O)-c2cccc5c2[C@@H](C4)N(C)CC5)c(O)c1-3

The next lines start with the molecule.

SMILES | IC50 (D(2) dopamine receptor [1]) | EC50 (D(2) dopamine receptor [2])
CN1CCc2cccc3c2[C@H]1Cc1ccc(OCCCNC(=O)CCCCCNC(=O)OC(C)(C)C)c(O)c1-3 | 6.54 µM | 266 nM
CN1CCc2cccc3c2[C@H]1Cc1ccc(OCCCNC(=O)CCC(=O)NCCCOc2ccc4c(c2O)-c2cccc5c2[C@@H](C4)N(C)CC5)c(O)c1-3 | 4.36 µM | 396 nM
CN1CCc2cccc3c2[C@H]1Cc1ccc(OCCCNC(=O)CCCCCCCCCCC(=O)NCCCOc2ccc4c(c2O)-c2cccc5c2[C@@H](C4)N(C)CC5)c(O)c1-3 | 0.183 µM | 110 nM
CN1CCc2cccc3c2[C@H]1Cc1ccc(OCCCNC(=O)CCCCCCCCCCCCCCCCC(=O)NCCCOc2ccc4c(c2O)-c2cccc5c2[C@@H](C4)N(C)CC5)c(O)c1-3 | 2.68 µM | 385 nM
CN1CCc2cccc3c2[C@H]1Cc1ccc(OCCCNC(=O)CCCCCCCCCCCCCCCCCCC(=O)NCCCOc2ccc4c(c2O)-c2cccc5c2[C@@H](C4)N(C)CC5)c(O)c1-3 | 1.55 µM | 248 nM
CN1CCc2cccc3c2[C@H]1Cc1ccc(OCCCNC(=O)CCCCC(=O)NCCCOc2ccc4c(c2O)-c2cccc5c2[C@@H](C4)N(C)CC5)c(O)c1-3 | 5.32 µM | 149 nM
CN1CCc2cccc3c2[C@H]1Cc1ccc(OCCCNC(=O)CCCCCCCCC(=O)NCCCOc2ccc4c(c2O)-c2cccc5c2[C@@H](C4)N(C)CC5)c(O)c1-3 | 1.35 µM | 79 nM
